Measured values taken from ChEMBL document CHEMBL5620353, “Novel antifungal triazoles with alkynyl-methoxyl side chains: Design, synthesis, and biological activity evaluation” (Eur J Med Chem, 2023).
Converted amounts (≈) assume the structure as drawn. The source made the active and inactive calls. The rule behind the calls is not given here.

Tests used:
[Candida] auris [1] = Antifungal activity against fluconazole-resistant Candida auris 919 assessed as inhibition of fungal growth incubated for 48 hrs by microbroth dilution method; format: functional; settings: Candidozyma auris
[2] = Metabolic stability in human liver microsomes assessed as intrinsic clearance at 1 uM preincubated for 10 mins followed by NADPH addition and measured upto 60 mins by LC-MS/MS analysis; format: ADME, Microsome; settings: time < 70 min, read-out: CLH
Saccharomyces cerevisiae [3] = experiment: Antifungal activity against recombinant Saccharomyces cerevisiae Y2301 overexpressing ScErg11 Y140F assessed as inhibition of fungal growth incubated for 48 hrs by microbroth dilution method; format: functional
Candida albicans [4] = experiment: Antifungal activity against fluconazole-resistant Candida albicans 901 assessed as inhibition of fungal growth incubated for 48 hrs by microbroth dilution method; format: functional
Candida albicans [5] = experiment: Antifungal activity against Candida albicans SC5314 infected in Galleria mellonella larvae assessed as prolongation of survival time at 2 mg/kg measured after 10 days post inoculation; format: functional, organism-based; settings: time 10.0 day
Candida albicans [6] = experiment: Antifungal activity against Candida albicans assessed as reduction in hyphal length at 16 ug/ml; format: functional, organism-based; settings: dose 16.0 µg/ml
Candida albicans [7] = experiment: Antifungal activity against Candida albicans SC5314 assessed as inhibition of fungal growth at 16 ug/ml measured after 24 hrs by optical density based method; format: functional
Candida albicans [8] = experiment: Antifungal activity against Candida albicans 904 assessed as reduction in fungal viability incubated for 48 hrs by spot assay; format: functional, organism-based; settings: dose 0.5-1 µg/ml
[9] = target: T1, Lanosterol 14-alpha demethylase (Candida albicans (strain SC5314 / ATCC MYA-2876) (Yeast), UniProt P10613); experiment: Inhibition of Lanosterol 14-alpha demethylase in Candida albicans SC5314 assessed as reduction in ergosterol level at 8 ug/ml incubated for 8 hrs by GC-MS analysis relative to control; settings: at 8 µg/mL
Cytochrome P450 1A2 = target: T2, Cytochrome P450 1A2 (Homo sapiens, UniProt P05177); experiment: Inhibition of human CYP1A2 using phenacetin as substrate prewarmed for 10 mins followed by NADPH addition and measured after 10 mins by LC-MS/MS analysis; format: ADME
T2 sequence (P05177 whole entry): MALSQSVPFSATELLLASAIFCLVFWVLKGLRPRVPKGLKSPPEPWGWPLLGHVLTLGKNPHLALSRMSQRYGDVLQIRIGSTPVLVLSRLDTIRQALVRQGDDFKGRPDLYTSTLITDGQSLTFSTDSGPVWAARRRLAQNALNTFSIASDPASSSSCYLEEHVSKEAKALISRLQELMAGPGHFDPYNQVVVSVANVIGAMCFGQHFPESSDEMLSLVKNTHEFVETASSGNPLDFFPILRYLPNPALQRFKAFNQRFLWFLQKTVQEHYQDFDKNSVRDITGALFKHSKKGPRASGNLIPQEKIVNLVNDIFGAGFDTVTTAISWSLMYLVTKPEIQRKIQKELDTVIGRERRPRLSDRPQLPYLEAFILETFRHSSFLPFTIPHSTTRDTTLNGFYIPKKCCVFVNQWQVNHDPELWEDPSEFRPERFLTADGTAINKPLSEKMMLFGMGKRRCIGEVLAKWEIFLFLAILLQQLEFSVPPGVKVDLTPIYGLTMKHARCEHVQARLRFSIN

Candida albicans [10] = experiment: Antifungal activity against Candida albicans assessed as increase in pseudohyphae at 16 ug/ml; format: functional, organism-based; settings: dose 16.0 µg/ml
Candida albicans [11] = experiment: Antifungal activity against Candida albicans 904 assessed as inhibition of fungal growth incubated for 48 hrs by spot assay; format: functional, organism-based; settings: dose 0.5-1 µg/ml
Candida albicans [12] = experiment: Inhibition of biofilm formation in Candida albicans SC5314 at 64 ug/ml incubated for 24 hrs by XTT reduction assay relative to control; format: functional
Candida parapsilosis [13] = experiment: Antifungal activity against Candida parapsilosis 22019 assessed as reduction in fungal viability incubated for 48 hrs by spot assay; format: functional, organism-based; settings: dose 0.5-1 µg/ml
[Candida] auris [14] = Antifungal activity against Candida auris 891 assessed as inhibition of fungal growth incubated for 48 hrs by spot assay; format: functional, organism-based; settings: Candidozyma auris, dose 0.5-1 µg/ml
Candida albicans [15] = experiment: Antifungal activity against Candida albicans SC5314 assessed as inhibition of fungal growth incubated for 48 hrs by spot assay; format: functional, organism-based; settings: dose 0.5-1 µg/ml
Nakaseomyces glabratus [16] = experiment: Antifungal activity against Candida glabrata 537 assessed as reduction in fungal viability incubated for 48 hrs by spot assay; format: functional, organism-based; settings: dose 0.5-1 µg/ml
Saccharomyces cerevisiae [17] = experiment: Antifungal activity against recombinant Saccharomyces cerevisiae Y2462 overexpressing ScErg11 ScNcp1 assessed as inhibition of fungal growth incubated for 48 hrs by microbroth dilution method; format: functional
Nakaseomyces glabratus [18] = experiment: Antifungal activity against Candida glabrata 537 assessed as inhibition of fungal growth incubated for 48 hrs by spot assay; format: functional, organism-based; settings: dose 0.5-1 µg/ml
Candida albicans [19] = experiment: Antifungal activity against Candida albicans SC5314 assessed as reduction in fungal viability incubated for 48 hrs by spot assay; format: functional, organism-based; settings: dose 0.5-1 µg/ml
[Candida] auris [20] = Antifungal activity against Candida auris 891 assessed as reduction in fungal viability incubated for 48 hrs by spot assay; format: functional, organism-based; settings: Candidozyma auris, dose 0.5-1 µg/ml
[21] = target: T1, Lanosterol 14-alpha demethylase; experiment: Inhibition of Lanosterol 14-alpha demethylase in Candida albicans SC5314 assessed as increase in 14alpha-methylfecosterol level at 8 ug/ml incubated for 8 hrs by GC-MS analysis relative to control; set-up: scale not given: the % may be the effect or the level left; settings: at 8 µg/mL
[22] = target: T1, Lanosterol 14-alpha demethylase; experiment: Inhibition of Lanosterol 14-alpha demethylase in Candida albicans SC5314 assessed as increase in obtusifoliol level at 8 ug/ml incubated for 8 hrs by GC-MS analysis relative to control; set-up: scale not given: the % may be the effect or the level left; settings: at 8 µg/mL
Candida albicans [23] = experiment: Antifungal activity against Candida albicans SC5314 infected in Galleria mellonella larvae assessed as delay in time of larval death at 8 mg/kg measured after 10 days post inoculation; format: functional, organism-based; settings: time 10.0 day
[24] = target: T1, Lanosterol 14-alpha demethylase; experiment: Inhibition of Lanosterol 14-alpha demethylase in Candida albicans SC5314 assessed as increase in eburicol level at 8 ug/ml incubated for 8 hrs by GC-MS analysis relative to control; set-up: scale not given: the % may be the effect or the level left; settings: at 8 µg/mL
[25] = target: T1, Lanosterol 14-alpha demethylase; experiment: Inhibition of Lanosterol 14-alpha demethylase in Candida albicans SC5314 assessed as increase in lanosterol level at 8 ug/ml incubated for 8 hrs by GC-MS analysis (reference value: 2.79%); set-up: scale not given: the % may be the effect or the level left; settings: at 8 µg/mL
Candida parapsilosis [26] = experiment: Antifungal activity against Candida parapsilosis 22019 assessed as inhibition of fungal growth incubated for 48 hrs by spot assay; format: functional, organism-based; settings: dose 0.5-1 µg/ml
Candida albicans [27] = experiment: Antifungal activity against Candida albicans SC5314 infected in Galleria mellonella larvae assessed as median survival time at 8 mg/kg measured after 10 days post inoculation; format: functional; settings: time 10 day
Candida albicans [28] = experiment: Antifungal activity against Candida albicans SC5314 infected in Galleria mellonella larvae assessed as larval survival rate at 8 mg/kg measured after 10 days post inoculation relative to control; format: functional; settings: SC5314, 240 h, time 10 day
Candida albicans [29] = experiment: Antifungal activity against Candida albicans SC5314 infected in Galleria mellonella larvae assessed as increase in survival rate at 2 mg/kg measured after 10 days post inoculation; format: functional, organism-based; settings: time 10.0 day
[30] = target: T1, Lanosterol 14-alpha demethylase; experiment: Inhibition of Lanosterol 14-alpha demethylase in Candida albicans SC5314 assessed as remaining ergosterol level at 8 ug/ml incubated for 8 hrs by GC-MS analysis (reference value: 89.76%); settings: at 8 µg/mL

T1 sequence (P10613 whole entry): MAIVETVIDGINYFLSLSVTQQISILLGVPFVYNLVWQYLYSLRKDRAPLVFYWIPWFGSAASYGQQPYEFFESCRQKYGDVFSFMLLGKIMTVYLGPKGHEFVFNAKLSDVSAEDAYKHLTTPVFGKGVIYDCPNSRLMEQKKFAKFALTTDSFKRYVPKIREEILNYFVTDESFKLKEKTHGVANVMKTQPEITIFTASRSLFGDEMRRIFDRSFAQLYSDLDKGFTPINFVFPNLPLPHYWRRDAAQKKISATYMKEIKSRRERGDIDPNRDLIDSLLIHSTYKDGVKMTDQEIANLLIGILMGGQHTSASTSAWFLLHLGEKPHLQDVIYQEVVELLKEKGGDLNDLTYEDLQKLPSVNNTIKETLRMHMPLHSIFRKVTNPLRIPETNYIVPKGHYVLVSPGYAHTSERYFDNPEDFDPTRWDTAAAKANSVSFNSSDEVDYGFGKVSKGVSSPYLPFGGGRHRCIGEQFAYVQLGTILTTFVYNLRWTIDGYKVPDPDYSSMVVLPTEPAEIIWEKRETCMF

C[C@@H](OCC#Cc1ccc(C#N)cc1)[C@](O)(Cn1cncn1)c1ccc(F)cc1F
MIC ([Candida] auris [1]): 16 µg/mL (≈ 39.2 µM) | microsomal CLint at 1 µM [2]: 25.6 µL/min/mg | MIC (Saccharomyces cerevisiae [3]): 0.063 µg/mL | MIC (Candida albicans [4]): 16 µg/mL (≈ 39.2 µM) | Activity (Candida albicans [5]): Active | Activity (Candida albicans [6]): Active | inhibition at 16 µg/mL (Candida albicans [7]): 100% | Activity (Candida albicans [8]): Dose-Dependent Effect | inhibition (INH) [9]: ~ 100% | IC50 (Cytochrome P450 1A2): 42.6 µM | Activity (Candida albicans [10]): Active | Activity (Candida albicans [11]): Dose-Dependent Effect | inhibition at 64 µg/mL (Candida albicans [12]): 43.9% | Activity (Candida parapsilosis [13]): Dose-Dependent Effect | Activity ([Candida] auris [14]): Dose-Dependent Effect | Activity (Candida albicans [15]): Dose-Dependent Effect | Activity (Nakaseomyces glabratus [16]): Dose-Dependent Effect | MIC (Saccharomyces cerevisiae [17]): 0.031 µg/mL | Activity (Nakaseomyces glabratus [18]): Dose-Dependent Effect | Activity (Candida albicans [19]): Dose-Dependent Effect | Activity ([Candida] auris [20]): Dose-Dependent Effect | Activity [21]: 36.87% | Activity [22]: 12.82% | Activity (Candida albicans [23]): Active | Activity [24]: 13.13% | Activity [25]: 37.18% | Activity (Candida parapsilosis [26]): Dose-Dependent Effect | MST (Candida albicans [27]): 10 days | survival at 8 mg/kg (Candida albicans [28]): 40% | Activity (Candida albicans [29]): inactive

C[C@@H](OCC#Cc1ccc(F)cc1F)[C@](O)(Cn1cncn1)c1ccc(F)cc1F
MIC ([Candida] auris [1]): 16 µg/mL (≈ 38.2 µM) | microsomal CLint at 1 µM [2]: 26.2 µL/min/mg | MIC (Saccharomyces cerevisiae [3]): 0.063 µg/mL | MIC (Candida albicans [4]): 32 µg/mL (≈ 76.3 µM) | Activity (Candida albicans [8]): Dose-Dependent Effect | inhibition (INH) [9]: ~ 100% | IC50 (Cytochrome P450 1A2): 50.7 µM | Activity (Candida albicans [11]): Dose-Dependent Effect | inhibition at 64 µg/mL (Candida albicans [12]): 37% | Activity (Candida parapsilosis [13]): Dose-Dependent Effect | Activity ([Candida] auris [14]): Dose-Dependent Effect | Activity (Candida albicans [15]): Dose-Dependent Effect | Activity (Nakaseomyces glabratus [16]): Dose-Dependent Effect | MIC (Saccharomyces cerevisiae [17]): 0.063 µg/mL | Activity (Nakaseomyces glabratus [18]): Dose-Dependent Effect | Activity (Candida albicans [19]): Dose-Dependent Effect | Activity ([Candida] auris [20]): Dose-Dependent Effect | Activity (Candida parapsilosis [26]): Dose-Dependent Effect

C[C@@H](OCC#Cc1ccncc1)[C@](O)(Cn1cncn1)c1ccc(F)cc1F
MIC ([Candida] auris [1]): 16 µg/mL (≈ 41.6 µM) | Activity [30]: 1.1% | microsomal CLint at 1 µM [2]: 188 µL/min/mg | MIC (Saccharomyces cerevisiae [3]): 0.063 µg/mL | MIC (Candida albicans [4]): 32 µg/mL (≈ 83.2 µM) | IC50 (Cytochrome P450 1A2): 31.1 µM | inhibition at 64 µg/mL (Candida albicans [12]): 43.4% | MIC (Saccharomyces cerevisiae [17]): 0.063 µg/mL
